From patent publication US20180296537A1, “METHODS AND COMPOSITIONS FOR DIAGNOSING, TREATING, AND MONITORING TREATMENT OF SHANK3 DEFICIENCY ASSOCIATED DISORDERS” (Novartis AG, priority 2015, published 2018)

Assays:
CA1 pyramidal neurons = assay: Dendritic spine density in hippocampal organotypic slice cultures; format: cell-based, mouse
Procedure: Wilde type (C57B1/6) mice were housed in a temperature-controlled room and maintained on a 12 hr light/dark cycle. Food and water were available ad libitum and experiments were carried out in accordance with the local authorization guidelines for the care and use of laboratory animals. Slice cultures were established according to the procedure described by Stoppini and colleagues (Galimberti et al., 2006; Stoppini et al., 1991). […] For organotypic slice cultures, brains of P6-P9 transgenic mice were dissected in cold MEM (GIBCO) medium, and hippocampal coronal sections of 400 μm were obtained with a tissue chopper (McIlwain). Slices were selected, placed on Millicell (Millipore, PICM03050) and cultured in 6-well dishes at 35° C. and 5% CO2 in the presence of 1 ml of medium. The entire slice isolation procedure took about 30 min. The culture medium was exchanged every third day. Treatments were performed in fresh culture medium for the indicated time periods.
Brain slices were transfected with plasmids encoding shCont, and shShank3 using helios gene gun system (Bio-Rad Laboratories, #165-2431) as previously described (Proenca et al., 2013). Subsequently, slices were fixed, stained, mounted, and analyzed following the protocols described below in the immunohistochemistry and microscopy paragraphs.
Slices were fixed for 10 minutes in 4% PFA, washed in PBS and blocked for 4 hr at room temperature in 0.3% Triton X-100 20% Horse Serum/PBS (blocking solution). GFP primary antibody was incubated for 24 hr at 4° C. in the blocking solution. Afterwards, slices were washed in PBS, incubated for 2 hr in 0.3% Triton X-100/PBS with Alexa Fluor® 488 Donkey anti-chicken secondary antibody (Life technologies). Finally, slices were washed in PBS, incubated 10 minutes with DAPI (Life technologies) and mounted on glass slides using ProLong mountant (Life technologies).
High resolution images were acquired on an upright Zeiss LSM700 confocal microscope, using a Plan-Neofluar 100×/1.3 oil immersion objective. For the analysis of dendritic spine density, confocal 3D stacks were acquired in CA1 region for each experiment. To quantify spine density, a stretch of approximately 30 μm was selected on secondary dendrites originating at the branch point from the primary dendrite. Only secondary dendrites were considered to reduce variability. Dendritic length was measured using the ImageJ plugin, Simple Neurite tracer, and spine density manually counted using the Cell Counter plugin.
The above findings implicate CLK2 overexpression as a specific anomaly that is causative for attenuated Akt activity in neurons deficient for Shank3. Consequently, inhibiting CLK2 activity or directly activating Akt would restore neuronal impairments associated with Shank3 loss of function. First, a small-molecule Akt-activator, SC79, was tested for its ability to restore Akt phosphorylation (FIG. 5A). SC79 binds directly to Akt to facilitate an ‘open’ conformation of the protein that is accessible to upstream activating kinases (eg. PDK1). This obviates the need for PtdIns(3,4,5)P3 (PIP3) production and recruitment of Akt to the plasma membrane (Rodgers, Cell Metab. 11, 23-34, 2010). […] Decreased principal neuron dendritic spine density has frequently been observed in Shank3 loss of function models (Durand et al., 2007, Nature Genetics 39: 25-27; Peca et al., 2011, Nature 472: 437-442; Verpelli et al., 2011, The Journal of Biological Chemistry 286: 34839-34850). Knock-down of Shank3 in hippocampal organotypic slice cultures, via biolistic transfection of shRNA vectors, faithfully recapitulated this phenotype in CA1 pyramidal neurons, whereby a two-fold reduction in apical dendrite spine density resulted (FIG. 6A). […]

Shank3^ΔC/ΔC mice = assay: Marble burying (avoidance behavior); format: in vivo, mouse; conditions: 30 minutes, 20 marbles; TG003 treatment
Procedure: To assess avoidance behavior by marble burying, 20 black marbles were evenly distributed in rows in a novel home cage on top of 5 cm of fresh bedding and mice were left undisturbed for 30 minutes in the cage. The number of marbles to at least ⅔ depth were then recorded.

Akt = assay: In vivo Akt phosphorylation in Shank3^ΔC/ΔC mice; set-up: species or system mouse; conditions: 30 mg/kg TG003 intraperitoneal
From the text: To determine whether the above findings extend to autism spectrum disorder (ASD)-like behaviors, a Shank3-deficient mouse model was generated by ablation of Shank3 exon 21 (FIGS. 8A and 8B) as previously described (Kouser et al., Journal of Neuroscience 33, 18448-18468, 2013; Duffney et al., Cell reports 11, 1400-1413, 2015). To generate Shank3 exon 21-deleted mice, the exon 21 genomic region of Shank3 (2464 bp in size) was replaced by homologous recombination with a loxP-TK_Neo-loxP cassette. The Neo cassette was flanked by a 3 kb 5′ homology arm and a 1.6 kb 3′ homology arm. Linearized targeting vector DNA was electroporated into C57BL6/J ES cells, and G418 resistant ES clones were first screened by nested PCR, and then subjected to Southern blot analysis. For Southern analysis, genomic DNA was digested with restriction enzyme(s), and hybridized with probes positioned outside the 5′ and 3′ homologous regions. Targeted ES clones were used for blastocyst injection, and chimeric males were mated with transgenic Cre-expressing C57B1/6 mice females to remove the neomycin resistance cassette. Animals without the neo cassette were used as F1 mice to establish the Shank3 exon 21-deleted (Shank3^ΔC/ΔC) colony.
The major Shank3 isoforms were absent in the homozygous mice (Shank3^ΔC/ΔC), while faster-migrating, truncated fragments were detected (FIG. 8C).

| SMILES | spine density (CA1 pyramidal neurons; Shank3 knock down neurons, 4 μg/ml SC79, 24 hr, DIV 14) | spine density (CA1 pyramidal neurons; control neurons, 4 μg/ml SC79, 24 hr, DIV 14) | avoidance behavior, marble burying (Shank3^ΔC/ΔC mice) | spine density (CA1 pyramidal neurons; Shank3 knock down neurons, TG003 24 hours) | dendritic spine density (CA1 pyramidal neurons; knockdown of Shank3 with additional shRNAs, 24 h pre-treatment with TG003, fixed DIV 14) | Akt phosphorylation in vivo (Akt) |
| --- | --- | --- | --- | --- | --- | --- |
| CCOC(=O)C1=C(N)Oc2ccc(Cl)cc2C1C(C#N)C(=O)OCC (stereo not drawn) [SC79] | rescued the spine density impairment in Shank3 knock down neurons | without significantly affecting controls |  |  |  |  |
| CCN1/C(=C/C(C)=O)Sc2ccc(OC)cc21 [TG003, (Z)-1-(3-ethyl-5-methoxy-2,3-dihydrobenzothiazol-2-ylidene)propan-2-one] |  |  | refractory to treatment with TG003 | increased spine density in Shank3 knock down neurons to control levels | corrected | increases Akt phosphorylation |
